US12214076B2, “Drug delivery vehicles for atherosclerosis nanomedicine” (Northwestern University, priority 2019, dated 2025)

Assays:
[1] = TEM characterization of PA nanofibers for diameter and length (Example 3); type: physicochemical; conditions: 30 measurements from three images
Method: Samples at 1 mM in PBS were prepared for TEM by plating on copper supports covered with thin carbon foil 400-mesh that were treated with glow discharge. […] Due to the overlapping fibers, automated tools including FiberApp could not be used to analyze the nanofibers. Instead, the TEM images were analyzed manually for nanofiber diameter and length using ImageJ software. Cryogenic TEM of samples was also performed using a JEOL 1230 at 100 kV accelerating voltage and Gatan 831 CCD camera. […] Samples were prepared at 1 mM in PBS blotted once for 3 seconds before plunging into liquid ethane using a Vitrobot Mark III (FEI) vitrification robot.

[2] = Small angle x-ray scattering (SAXS) of PA nanofibers; type: physicochemical; conditions: 5 mM in PBS
Method: Small angle x-ray scattering (SAXS): SAXS characterization of the PA nanofibers was performed at the Advanced Photon Source in the Argonne National Laboratory on beamline 5-ID-D, DuPont-Northwestern-Dow Collaborative Access Team Synchrotron Research Center. Samples were prepared at 5 mM in PBS solution, aged at least 24 hours at 4° C., and analyzed in 1.5 mm quartz capillaries (Charles Supper) at 17 keV with a charged couple device photon detector located 245 cm behind the sample. Scattering intensities were collected using wave vector q range of 0.0024 to 0.40 Å^−1. q represents the scattering vector and is calculated as q=4π sin (θ)/λ, with θ as the scattering angle between the incident beam and detector and […] the X-ray wavelength. The plots of scattering intensity versus q were obtained using NIST software Igor Pro v8. The scattering intensities of PBS were subtracted from the PA samples using the Irena SAS macro, and the resulting plots were fitted using NCNR Analysis macro to a polydisperse core shell cylinder model.

[3] = system: J774.2 murine macrophages; test: Nitric oxide production of stimulated macrophages; type: cell-based, mouse; conditions: 24 hours, LPS and stimulated, 32 μM Ac2-26 or epitope equivalent
Method: Macrophage culture and characterization: J774.2 murine macrophages (Sigma-Aldrich) were expanded at 4-9×10^5 cells/mL in growth media consisting of Dulbecco's Modified Eagle's Medium (Sigma-Aldrich) containing 4.5 g/L glucose, 2 mM L-glutamine, 10% v/v FBS, 100 U/m penicillin, and 100 μg/mL streptomycin. Cells were passaged using Accutase™ (StemCell Technologies) and used at passage 6-9 for all experiments. The cells were detached with Accutase™ and gentle scraping, counted, and re-suspended in flow cytometry buffer containing 2% w/v bovine serum albumin (BSA, heat shock fraction free of proteases, globulin, and fatty acids, Sigma-Aldrich) and 0.1% w/v sodium azide (Sigma-Aldrich). To minimize non-specific binding of immunoglobin to Fc receptors, macrophages were incubated with anti-mouse CD16/32 antibody (TrueStain FcX™, Biolegend) at 1 μg/1×10^5 cells for 10 minutes at 4° C. APC anti-mouse CD11b antibody or APC Armenian hamster IgG isotype control antibody (Biolegend) were added at 0.4 μg/1×10^5 cells, FPR2 antibody (Novus Biologics) was added at […], and all samples were incubated for 30 minutes at 4° C. The cells were washed once with flow cytometry buffer by centrifugation at 300×g. FPR2 samples were further treated with goat anti-rabbit Alexa Fluor 488 secondary antibody (Invitrogen) at 2 μg/1×10^5 cells for 20 minutes at 4° C., followed by a wash step. Unstained macrophages served as controls and contained 7AAD viability staining solution (Biolegend) at 0.1 μg/1×10^5. All samples were suspended in 4% paraformaldehyde (Electron Microscopy Sciences) in PBS until analysis. […] All samples were analyzed using Attune NxT Acoustic Focusing Cytometer (Thermo Fisher) with at least 2000 events counted per condition.
Therapeutic effects of ApoA1-Ac2-26 PAs: 10% ROS- and MMP-Ac2-26 PAs, as well as Ac2-26 peptide were added together with 10 μg/mL LPS at 32 μM Ac2-26 to macrophages. […] Concerning the quantification of NO, the reducing solution made of KI in acetic acid and water provides an excess of I− that reacts with nitrite yielding ·NO. […]

## C16-V2A2 (SEQ ID NO: 8)-E2-NH2 [Diluent PA]
[1]
  Diameter (nm) Average: 12.3 nm
  Diameter (nm) Median: 12.4 nm
  Length (nm) Average: 3024.4 nm
  Length (nm) Median: 2541.4 nm
[1]; listed as diluent
  Diameter (nm) Average: 12.3±3.1 nm
  Length (nm) Median: 2541 nm
[2]
  SAXS slope of Guinier regime in the low q region: −1
[3]
  macrophage activation, nitric oxide production relative to the stimulated control: did not cause significant decreases in nitric oxide production
